The text below walks through data of the NIST ThermoML archive (doi:10.1016/j.tca.2005.11.022).

Data set [1] is described as follows: Solid-liquid equilibrium temperature. To be noted: 101.3 kPa, Conductivity measurements.
Data set [2] is described as follows: excess molar enthalpy (molar enthalpy of mixing); xn = mol fraction of the nth substance listed. To be noted: 505 K, 101 kPa, Liquid, Calvet calorimetry.

± gives the expanded uncertainty stated by the source.

With `O=S(=O)([O-])O.[Na+]` [sulfuric acid, monosodium salt], the Solid-liquid equilibrium temperature in data set [1] (Crystal) is on record as 458 ± 1 K.

Turning to `O=S(=O)([O-])O.[K+]` [hydrogen potassium sulfate], the Solid-liquid equilibrium temperature in data set [1] (Crystal 1) is reported as 488 ± 1 K.

For `O=S(=O)([O-])O.[Na+]` [sulfuric acid, monosodium salt] + O=S(=O)([O-])O.[K+], the excess molar enthalpy in data set [2] (x2 = 0.1135) was -0.043 ± 0.0043 kcal/mol; in data set [2] (x2 = 0.2137), -0.1 ± 0.01 kcal/mol; in data set [2] (x2 = 0.4029), -0.126 ± 0.0127 kcal/mol; in data set [2] (x2 = 0.4978) it was -0.145 ± 0.0146 kcal/mol; in data set [2] (x2 = 0.5883), -0.143 ± 0.0143 kcal/mol; in data set [2] (x2 = 0.7186), -0.123 ± 0.0124 kcal/mol. The excess molar enthalpy in data set [2] (x2 = 0.8521) was -0.069 ± 0.00693 kcal/mol.
